In publication PMC11050599, “Novel Tetracyclic Azaphenothiazines with the Quinoline Ring as New Anticancer and Antibacterial Derivatives of Chlorpromazine” (International Journal of Molecular Sciences, 2024):
Values after ≈ are worked out from the molar mass of the structure shown. Where two headings read alike, the source gives them in different places.

Tests used:
[1] = tested on: MDA-MB-231 (breast cancer); assay: MTT assay, MDA-MB-231 cells; assay type: cell-based, human; details: for IC50: Homo sapiens, read-out: IC50 MDA; for SI MDA: SI = IC50 for normal cell line (HaCaT)/IC50 cancer cell line
Method in brief: (§1)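 1 × 10^4 cells/well; 72 h compound exposure; MTT absorbance; % viability vs medium-only control. Media: HCT116 MEM, PC3 RPMI, MDA-MB-231/HaCaT DMEM high glucose, all 10% FBS.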

PC3 (prostate cancer) = assay: MTT assay, PC3 cells; assay type: cell-based, human; details: for IC50: Homo sapiens, read-out: IC50 PC3; for SI PC3: SI = IC50 for normal cell line (HaCaT)/IC50 cancer cell line
Experimental: (§2) The human cell lines, such as A549 (lung cancer), MDA-MB-231 (breast cancer), MiaPaca-2 (pancreatic cancer), PC3 (metastatic prostate cancer), HCT-116 (colon carcinoma), and HaCaT (immortalized keratinocytes), were sourced from the American Type Culture Collection (ATCC) in Rockville, USA. Culturing conditions varied as follows: HCT116 cells were cultured in MEM (ThermoSci, Waltham, MA, USA), A549, MDA-MB-231, MiaPaca, HaCaT cells in DMEM High Glucose and PC3 cells were cultured in RPMI (Biowest SAS, Nuaillé, France). The growth medium consisted of 10% fetal bovine serum (FBS, Sigma-Aldrich, St. Louis, MO, USA), 20 mM HEPES (Biowest, Nuaillé, France), and antibiotics (100 U/mL of penicillin and 100 μg/mL of streptomycin) from Gibco, Grand Island, NY, USA. […] These compounds were added to 96-well plates containing study cells (1 × 10^4 cells per well) and incubated for 72 h. […] Cell absorbance results were incorporated into the formula for calculating the relative MTT level (%), enabling the assessment of cell viability following exposure to the test compounds. The cell viability percentage represents the MTT reduction in cells treated with the test compounds compared to the control sample, where only the medium was added to the cells.

HCT116 (colon cancer) = assay: MTT assay, HCT116 cells; assay type: cell-based, human; details: for IC50: Homo sapiens, read-out: IC50 HCT116; for SI HCT116: SI = IC50 for normal cell line (HaCaT)/IC50 cancer cell line
Experimental: as §2

[2] = tested on: HaCaT (immortalized human keratinocytes); assay: MTT assay, HaCaT normal cells; assay type: cell-based; details: Homo sapiens, HaCaT, 72 h, read-out: IC50 HaCaT (Table 3)
Method in brief: as §1

A549 (lung cancer) = assay: MTT assay, A549 cells; assay type: cell-based, human; details: for IC50: Homo sapiens, read-out: IC50 A549
Method in brief: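 Test compounds are added to plated cells (1 × 10^4 per well) for 72 h. Cell viability is calculated as the percentage of MTT reduction compared with cells given medium alone.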

MiaPaCa-2 cells = assay: Annexin V-FITC/PI apoptosis flow cytometry, MiaPaCa-2; assay type: cell-based, human
Experimental: (§3) To analyze the number of cells in early apoptosis, late apoptosis, or necrosis, A549, MiaPaca-2, and HCT-116 cell lines were cultured in 6-well plates with a seeding density of 1 × 10^5 cells per well. These cells were then treated with selected compounds (4, 5, and 8) at their respective IC50 concentrations and incubated for 72 h. Subsequently, a commercially available kit, the FITC: Annexin V Apoptosis Detection Kit I from BD Biosciences Pharmingen in San Jose, CA, USA, was utilized to assess apoptosis. After 72 h the cells were harvested, washed, and labeled with Annexin V-FITC and propidium iodide (PI) following the manufacturer’s protocol (Becton Dickinson), as previously described. The stained cells were analyzed by flow cytometry. The cells were identified as early apoptotic (Annexin V+/PI−) or late apoptotic/necrotic (Annexin V+/PI+).

cancer cell lines = assay: MTT assay, summary over several cell lines; assay type: cell-based, human
Experimental: as §2

S. aureus ATCC 29213 = assay: MIC broth microdilution; assay type: cell-based; details: Staphylococcus aureus, read-out: MIC S. aureus ATCC 29213
Method in brief: (§4)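 Two-fold serial broth microdilution in Mueller-Hinton II broth, final inoculum adjusted to […]. Compounds dissolved in DMSO, final solvent at most 1%.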

E. coli ATCC 25922 = assay: MIC broth microdilution; assay type: cell-based; details: Escherichia coli, read-out: MIC E. coli ATCC 25922
Method in brief: as §4

S. aureus ATCC 6538 = assay: MIC broth microdilution; assay type: cell-based; details: Staphylococcus aureus, read-out: MIC S. aureus ATCC 6538
Method in brief: as §4

S. aureus NCTC 4163 = assay: MIC broth microdilution; assay type: cell-based; details: Staphylococcus aureus, read-out: MIC S. aureus NCTC 4163
Method in brief: as §4

[3] = tested on: S. epidermidis ATCC 35984; assay: MIC broth microdilution; assay type: cell-based; details: for MIC: Staphylococcus epidermidis, read-out: MIC S. epidermidis ATCC 35984
Method in brief: as §4

S. aureus ATCC 25923 = assay: MIC broth microdilution; assay type: cell-based; details: Staphylococcus aureus, read-out: MIC S. aureus ATCC 25923
Method in brief: as §4

P. aeruginosa ATCC 15442 = assay: MIC broth microdilution; assay type: cell-based; details: Pseudomonas aeruginosa, read-out: MIC P. aeruginosa ATCC 15442
Method in brief: as §4

[4] = tested on: S. epidermidis ATCC 12228; assay: MIC broth microdilution; assay type: cell-based; details: Staphylococcus epidermidis, read-out: MIC S. epidermidis ATCC 12228
Method in brief: as §4

[5] = tested on: MiaPaCa-2 (pancreas cancer); assay: MTT assay, MiaPaCa-2 cells; assay type: cell-based, human; details: for IC50: Homo sapiens, read-out: IC50 MiaPaCa-2; for SI MiaPaCa-2: SI = IC50 for normal cell line (HaCaT)/IC50 cancer cell line
Experimental: as §2

A549 cells = assay: Annexin V-FITC/PI apoptosis flow cytometry, A549; assay type: cell-based, human; details: representative dot plot, Figure 4A, IC50, 72 h
Experimental: as §3

HCT116 cells [6] = assay: Cell cycle analysis by flow cytometry, HCT116; assay type: cell-based, human; details: IC50, 24 h, compared to the control
Experimental: In brief, cells were seeded at a density of 1 × 10^5 cells/well on a six-well plate and allowed to adhere for 24 h. […] Both population cells (the attached and detached) were collected and centrifuged at 400× g for 5 min at 4 °C. After centrifugation, the cells were washed twice with 0.9% NaCl and subsequently fixed in 500 μL of 70 % cold ethanol overnight.
Before analysis, the fixed cells underwent another centrifugation step at 850× g for 5 min at 4 °C and were washed with PBS. Following the washes, the cells were incubated with 50 μL of RNase (100 μg/mL) and 200 μL of propidium iodide (PI) (50 μg/mL) at 37 °C for 30 min in the dark. Finally, 100 μL of PBS was added to each sample. Flow cytometry (Becton Dickinson FACS Verse, Franklin Lakes, NJ, USA) was then used to analyze the cell cycle distribution, identifying cells in various stages including sub-G1, G0/G1, S, and G2/M phases. Each assay was performed in quadruplicate.

HCT116 cells [7] = assay: Annexin V-FITC/PI apoptosis flow cytometry, HCT116; assay type: cell-based, human; details: representative dot plot, Figure 4C, IC50, 72 h
Experimental: as §3

[8] = MDA-MB-231, MTT, 72 h, MDA-MB231
[9] = representative dot plot, Figure 4B, IC50, 72 h

## Clc1ccc2c(c1)Nc1nc3ccccc3cc1S2 [Compound 5, 6H-8-chloroquino[3,2-b]benzo[1,4]thiazine]
[1]; [8]
  IC50: 76.5 ± 0.8 µM
[1]
  SI MDA: 0.7
PC3 (prostate cancer); PC-3, MTT, 72 h
  IC50: 76.5 ± 8.1 µM
PC3 (prostate cancer)
  SI PC3: 0.7
HCT116 (colon cancer); HCT-116, MTT, 72 h
  IC50: 33.5 ± 6.8 µM
HCT116 (colon cancer)
  SI HCT116: 1.7
[2]; MTT, normal cells
  IC50: 56.5 ± 4.5 µM
A549 (lung cancer); A549, MTT, 72 h, mean SD
  IC50: 14.9 ± 2.7 µM
A549 (lung cancer); SI = IC50 for normal cell line (HaCaT)/IC50 cancer cell line
  SI A549: 3.8
MiaPaCa-2 cells; compound at IC50, 72 h
  cells in early apoptosis, MiaPaCa-2: 4.56%
  cells in late apoptosis/necrosis, MiaPaCa-2: 23%
MiaPaCa-2 cells; [9]
  MiaPaca: Alive: 72.68%
  MiaPaca: Early Apoptotic: 4.56%
  MiaPaca: Necrotic: 9.46%
  MiaPaca: Necrotic/Late Apoptotic: 13.29%
Cancer cell lines; Homo sapiens, range over two cell lines not given, read-out: IC50 range against two tested cell lines
  IC50: 11.1 to 14.9 µM
S. aureus ATCC 29213; ATCC29213, 19 h, 35 °C
  MIC: 8 µg/mL (≈ 28.1 µM)
E. coli ATCC 25922; ATCC25922, 19 h, 35 °C
  MIC: 256 µg/mL (≈ 899 µM)
S. aureus ATCC 6538; ATCC6538, 19 h, 35 °C
  MIC: 8 µg/mL (≈ 28.1 µM)
S. aureus NCTC 4163; NCTC4163, 19 h, 35 °C
  MIC: 8 µg/mL (≈ 28.1 µM)
[3]; ATCC35984, 19 h, 35 °C
  MIC: 8 µg/mL (≈ 28.1 µM)
S. aureus ATCC 25923; ATCC25923, 19 h, 35 °C
  MIC: 8 µg/mL (≈ 28.1 µM)
P. aeruginosa ATCC 15442; ATCC15442, 19 h, 35 °C
  MIC: 256 µg/mL (≈ 899 µM)
[4]; ATCC12228, 19 h, 35 °C
  MIC: 8 µg/mL (≈ 28.1 µM)
[5]; MIA PaCa-2, MTT, 72 h
  IC50: 11.1 ± 0.4 µM
[5]
  SI MiaPaCa-2: 5.0

## O=C(NCCCl)NCCCN1c2cc(Cl)ccc2Sc2cc3ccccc3nc21 [Compound 20, 1-(3-(8-Chloroquino[3,2-b]benzo[1,4]thiazin-6-yl)propyl)-3-(2-chloroethyl)urea]
[1]; MDA-MB-231, 72 h
  IC50: 48.6 ± 7.3 µM
[1]
  SI MDA: 2.0
A549 cells
  A549: Alive: 88.24%
  A549: Early Apoptotic: 0.13%
  A549: Necrotic: 10.74%
  A549: Necrotic/Late Apoptotic: 0.89%
PC3 (prostate cancer); PC-3, 72 h
  IC50: 34.8 ± 9.8 µM
PC3 (prostate cancer)
  SI PC3: 2.8
HCT116 (colon cancer); HCT-116, 72 h
  IC50: 10.4 ± 1.6 µM
HCT116 (colon cancer)
  SI HCT116: 8.8
[2]
  IC50: > 100 µM
A549 (lung cancer); A549, 72 h
  IC50: 9.3 ± 1.2 µM
HCT116 cells [6]
  increase in the cell amount at the sub-G1 phase, HCT116: 3 fold
S. aureus ATCC 29213; ATCC29213, 19 h
  MIC: 8 µg/mL (≈ 17.9 µM)
E. coli ATCC 25922; ATCC25922, 19 h
  MIC: > 256 µg/mL
S. aureus ATCC 6538; ATCC6538, 19 h
  MIC: 8 µg/mL (≈ 17.9 µM)
S. aureus NCTC 4163; NCTC4163, 19 h
  MIC: 8 µg/mL (≈ 17.9 µM)
[3]; 19 h, 35 °C
  MIC S. epidermidis ATCC 35984: 4 µg/mL (≈ 8.94 µM)
[3]; ATCC35984, 19 h
  MIC: 4 µg/mL (≈ 8.94 µM)
S. aureus ATCC 25923; ATCC25923, 19 h
  MIC: 8 µg/mL (≈ 17.9 µM)
P. aeruginosa ATCC 15442; ATCC15442, 19 h
  MIC: > 256 µg/mL
[4]; ATCC12228, 19 h
  MIC: 8 µg/mL (≈ 17.9 µM)
HCT116 cells [7]
  HCT-116: Alive: 83.79%
  HCT-116: Early Apoptotic: 7.24%
  HCT-116: Necrotic: 4.80%
  HCT-116: Necrotic/Late Apoptotic: 4.17%
[5]; MIA PaCa-2, 72 h
  IC50: 23.2 ± 2.7 µM
[5]
  SI MiaPaCa-2: 4.3

## COc1cccc2c1C(=O)c1c(O)c3c(c(O)c1C2=O)C[C@@](O)(C(=O)CO)C[C@@H]3O[C@H]1C[C@H](N)[C@H](O)[C@H](C)O1 [DX, doxorubicin, reference compound]
[1]; [8]
  IC50: 0.8 ± 0.1 µM
[1]
  SI MDA: 0.15
PC3 (prostate cancer); PC-3, MTT, 72 h
  IC50: 0.8 ± 0.1 µM
PC3 (prostate cancer)
  SI PC3: 0.15
HCT116 (colon cancer); HCT-116, MTT, 72 h
  IC50: 0.59 ± 0.02 µM
HCT116 (colon cancer)
  SI HCT116: 0.5
[2]; MTT, normal cells
  IC50: 0.3 ± 0.1 µM
A549 (lung cancer); A549, MTT, 72 h, mean SD
  IC50: 0.6 ± 0.2 µM
Cancer cell lines; A549 and MDA-MB-231 versus HaCaT
  selectivity index (SI) range: 0.14–0.15
[5]; MIA PaCa-2, MTT, 72 h
  IC50: 0.6 ± 0.2 µM
